The subject of data set [1] is THP-1 cells. Nature of the data set: THP-1 soluble protein assay, soluble TNF-α (ELISA). The class given is cell-based, human. The note with it: for inhibition at 3 µM: Homo sapiens.
Method: Each vial of cells are cultured for about two weeks prior to being used for an assay and then are used for only 4 to 6 weeks to screen compounds.
Cell exposure to DMSO was limited to 0.1% final concentration. […] Plates are placed into an incubator set at 5% CO2 and at 37° C. After 4 hours of incubation, 300 ml/well of tissue culture supernatant (TCS) is removed for use in an TNF-α ELISA.
Percent change in each soluble protein evaluated from the “vehicle positive control” was calculated for each compound concentration with the following formula:
% Change=pg/ml (compound)−pg/ml (veh pos control)/(veh pos control)−pg/ml (veh neg control)×100
For the soluble protein (TNF-α, p75/80, p55/60, IL-8) studies under stimulated conditions, the mean pg/ml of duplicate wells were determined and the results expressed as percent change from “vehicle positive control”.
For data set [2], the target named is MMP-9 (Homo sapiens, UniProt P14780). Nature of the data set: MMP-9 inhibition (thiopeptide or fluorescent peptide substrate). The following applies: read-out: MMP-9 IC50. The class given is biochemical.
Data set [3] concerns the target T1, MMP-1 (Homo sapiens, UniProt P03956).
T1 sequence (P03956 100-469): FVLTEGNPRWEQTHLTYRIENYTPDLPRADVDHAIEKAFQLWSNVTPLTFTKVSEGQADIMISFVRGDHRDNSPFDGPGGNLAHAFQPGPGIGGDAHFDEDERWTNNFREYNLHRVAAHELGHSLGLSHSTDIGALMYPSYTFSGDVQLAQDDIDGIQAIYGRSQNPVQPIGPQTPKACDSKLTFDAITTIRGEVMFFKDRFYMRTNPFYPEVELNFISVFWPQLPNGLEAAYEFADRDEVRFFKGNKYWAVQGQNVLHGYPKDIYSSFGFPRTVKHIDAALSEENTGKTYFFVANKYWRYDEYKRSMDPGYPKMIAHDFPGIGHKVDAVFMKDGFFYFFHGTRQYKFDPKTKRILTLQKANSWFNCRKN
The experiment in a line: MMP-1 inhibition (thiopeptide or fluorescent peptide substrate). The class given is biochemical. The following applies: for IC50: read-out: MMP-1 IC50.

Data set [4] concerns the target MMP-13 (Homo sapiens, UniProt P45452). Nature of the data set: MMP-13 inhibition (thiopeptide or fluorescent peptide substrate). The class given is biochemical. The following applies: read-out: MMP-13 IC50.
The target in data set [5] is TNF-α converting enzyme (TACE) (Homo sapiens, UniProt P78536). The experiment in a line: TACE inhibition (fluorescent peptidyl substrate). The class given is biochemical. The following applies: read-out: TACE IC50.
[6] abbreviates: THP-1, 3 μM, THP-1 cells, read-out: THP % Inhibition @ 3 μM.

Structures can show the parent of a compound that is named as a salt. Where two headings read alike, the source gives them in different places.

One may read the IC50 as the concentration at which inhibition is half-maximal. A word on the inhibition: it is the drop in the measured response relative to a control, in per cent. Broadly, the melting point is the temperature, or range, at which the solid turns liquid.

MMP-9, sequence (P14780 94-707): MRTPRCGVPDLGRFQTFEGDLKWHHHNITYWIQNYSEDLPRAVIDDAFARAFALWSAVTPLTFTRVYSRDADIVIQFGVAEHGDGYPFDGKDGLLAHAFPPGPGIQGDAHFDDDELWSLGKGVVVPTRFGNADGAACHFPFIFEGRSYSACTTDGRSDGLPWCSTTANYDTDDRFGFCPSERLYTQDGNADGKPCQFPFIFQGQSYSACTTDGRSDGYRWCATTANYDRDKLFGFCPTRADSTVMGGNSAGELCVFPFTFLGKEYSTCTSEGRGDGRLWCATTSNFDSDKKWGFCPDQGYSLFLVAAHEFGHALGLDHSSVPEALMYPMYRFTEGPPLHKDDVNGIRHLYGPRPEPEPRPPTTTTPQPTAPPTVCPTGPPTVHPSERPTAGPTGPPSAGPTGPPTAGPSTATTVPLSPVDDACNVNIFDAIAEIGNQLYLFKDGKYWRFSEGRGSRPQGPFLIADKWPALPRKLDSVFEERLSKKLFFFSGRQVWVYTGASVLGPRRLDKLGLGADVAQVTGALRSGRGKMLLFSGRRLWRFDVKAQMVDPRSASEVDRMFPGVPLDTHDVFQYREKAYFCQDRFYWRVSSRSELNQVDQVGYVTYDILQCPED
TNF-α converting enzyme (TACE), sequence (P78536 215-824, species assumed): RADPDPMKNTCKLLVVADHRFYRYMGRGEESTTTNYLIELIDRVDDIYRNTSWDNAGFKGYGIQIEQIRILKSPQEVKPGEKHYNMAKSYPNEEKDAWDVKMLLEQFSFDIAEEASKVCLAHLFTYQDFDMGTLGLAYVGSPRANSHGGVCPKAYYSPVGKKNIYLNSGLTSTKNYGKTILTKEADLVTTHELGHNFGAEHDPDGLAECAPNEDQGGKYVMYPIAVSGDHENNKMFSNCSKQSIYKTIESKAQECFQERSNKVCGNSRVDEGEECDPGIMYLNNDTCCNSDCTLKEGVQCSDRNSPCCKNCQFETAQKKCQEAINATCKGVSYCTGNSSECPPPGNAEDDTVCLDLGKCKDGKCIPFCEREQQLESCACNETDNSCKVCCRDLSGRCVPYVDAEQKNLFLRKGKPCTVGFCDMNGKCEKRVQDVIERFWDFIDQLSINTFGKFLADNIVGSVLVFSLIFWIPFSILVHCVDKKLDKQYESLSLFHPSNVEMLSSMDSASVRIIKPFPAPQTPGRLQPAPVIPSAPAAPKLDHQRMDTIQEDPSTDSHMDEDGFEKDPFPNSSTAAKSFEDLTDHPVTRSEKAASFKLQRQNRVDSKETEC

As to “2-[(4-but-2-Ynylthiophenylsulfonyl)methylamino]-N-hydroxyacetamide [Example 134]”, the “THP % Inhibition @ 3 μM” value in data set [1] (THP-1 cells) is 14%. Further, the values for the IC50 in data set [2], in data set [3] and in data set [4] were 111 nM, 4950 nM and 84 nM, respectively.

In the case of “3-(Benzylthio)-2-[[[4-(2-butynyloxy)phenyl]sulfonyl]methylamino]-N-hydroxypropanamide [Example 156]”, in data set [1] (THP-1 cells), the “THP % Inhibition @ 3 μM” value stood at 75%. In addition, the values for the IC50 in data set [4] and in data set [5] were 4.5 nM and 4.8 nM, respectively.

Take `CC#CCOc1ccc(S(=O)(=O)N(CC(=O)NO)Cc2cccnc2)cc1` [Example 23, 2-[(4-but-2-ynyloxy-Benzenesulfonyl)-pyridin-3-ylmethyl-amino]-N-hydroxyacetamide Hydrochloride]: the inhibition at 3 µM in data set [1] (THP-1, read-out: THP % Inhibition @ 3 μM) came to 63%.

With `CC#CCOc1ccc(S(=O)(=O)NCC(=O)NO)cc1` [Example 25, 2-(4-but-2-ynyloxy-Benzenesulfonylamino)-N-hydroxy-acetamide], the inhibition at 3 µM in data set [1] (setting [6]) was found to be 39%. The IC50 was 753 nM in data set [2] and 4.8 nM in data set [5]. For the same compound, in data set [3] (at (10), concentration unit not given), the “MMP-1 % inhibition (10)” value is given as 47%(10).

With `CC#CCOc1ccc(S(=O)(=O)NC(C)(C)C(=O)NO)cc1` [Example 35, 2-(4-but-2-ynyloxy-Benzenesulfonylamino)-N-hydroxy-2-methyl-propionaiwde], in data set [1] (setting [6]), the inhibition at 3 µM was found to be 9%. For the same compound, the half-inhibitory concentration (IC50) in data set [2] amounted to 1380 nM; in data set [4], 396 nM; in data set [5], 12.9 nM.

In the case of `CC#CCOc1ccc(S(=O)(=O)N(C)C(C(=O)NO)C(C)(C)SCC)cc1` (stereo not drawn) [Example 150, 2-[(4-but-2-ynyloxy-Benenesulfonyl)-methyl-amino]-N-hydroxy-3-methyl-3-ethylsulfanyl-butyramide], the “THP % Inhibition @ 3 μM” value in data set [1] (THP-1 cells) stood at 86%. For the same compound, the IC50 in data set [3] amounted to 25 nM; in data set [4], 9.3 nM; in data set [5] it was 51 nM.

On to `CC#CCOc1ccc(S(=O)(=O)N(C)C(C(=O)NO)C(C)(C)SCc2ccccc2)cc1` (stereo not drawn) [Example 153, 2-[(4-but-2-ynyloxy-Benenesulfonyl)-methyl-amino]-N-hydroxy-3-methyl-3-benzylsulfanyl-butyramide], for which the melting point was in the range of 156 to 158 °C. For the same compound, the IC50 in data set [2] came out at 5.5 nM. In data set [3], the IC50 turned out to be 13 nM. Moreover, in data set [4], the IC50 was determined as 2 nM. For the same compound, in data set [5], the IC50 is 160 nM.

As to `CC#CCOc1ccc(S(=O)(=O)N(Cc2cccnc2)C(CSCc2ccccc2)C(=O)NO)cc1` (stereo not drawn) [Example 157, 3-(Benzylthio)-2-[[[4-(2-butynyloxy)phenyl]sulfonyl]pyridin-3-ylmethylamino]-N-hydroxypropanamide], the melting point is 74 to 78 °C. Besides, the IC50 in data set [2] worked out at 32 nM. Also, the IC50 in data set [3] is 111 nM. Also, in data set [4], the IC50 was found to be 3.8 nM. In data set [5], the IC50 stood at 98 nM.

For the compound `CC#CCOc1ccc(S(=O)(=O)NC(C(=O)NO)C(C)(C)SCC(=O)O)cc1` (stereo not drawn) [Example 166, tert-Butyl {[2-({[4-2-Butynyloxy)phenyl]sulfonyl}amino)-3-(hydroxyamino)-1,1-dimethyl-3-oxopropyl]sulfanyl Acetic Acid, Sodium Salt], the inhibition at 3 µM in data set [1] (setting [6]) turned out to be 55%. In addition, the IC50 in data set [2] was 2940 nM; in data set [3], 1900 nM; in data set [4], 241 nM.

Regarding `CC#CCOc1ccc(S(=O)(=O)NC(CSC)C(=O)NO)cc1` (stereo not drawn) [Example 167], the “THP % Inhibition @ 3 μM” value in data set [1] (THP-1 cells) was 77%. Further, the IC50 in data set [2] stood at 228 nM; in data set [3], 1740 nM; in data set [5], 3.5 nM.

In the case of `CC#CCOc1ccc(S(=O)(=O)NC(CSCc2ccccc2)C(=O)NO)cc1` (stereo not drawn) [Example 168], in data set [1] (THP-1 cells), the “THP % Inhibition @ 3 μM” value amounted to 62%. In addition, the results for the IC50 in data set [2], in data set [3] and in data set [5] were 141 nM, 1970 nM and 4.5 nM, respectively.

For `CC#CCOc1ccc(S(=O)(=O)N[C@@H](C(=O)NO)C(C)(C)SCCCO)cc1` [Example 171, (2S)-2-({[4-(2-Butynyloxy)phenyl]sulfonyl}amino)-N-hydroxy-3-[(3-hydroxypropyl)sulfanyl]-3-methylbutanamide], the inhibition at 3 µM in data set [1] (setting [6]) stood at 67%. Besides, the IC50 worked out at 2140 nM in data set [3], 36 nM in data set [4] and 25 nM in data set [5].

Turning to `CC#CCOc1ccc(S(=O)(=O)N[C@H](CSCCCO)C(=O)NO)cc1` [Example 172, (2S)-2-({[4-(2-Butynyloxy)phenyl]sulfonyl}amino)-N-hydroxy-3-[(3-hydroxypropyl)sulfanyl]-3-propanamide], the inhibition at 3 µM in data set [1] (setting [6]) was found to be 70%. Also, the figures for the IC50 in data set [3], in data set [4] and in data set [5] were more than 1000 nM, 169 nM and 11 nM, respectively.

For `CC#CCOc1ccc(S(=O)(=O)N(C)C(C(=O)NO)c2ccc(OCCN(C)C(=O)OC(C)(C)C)cc2)cc1` (stereo not drawn) [Example 191, tert-Butyl(2-{4-[1-({[4-(2-Butynyloxy)phenyl]sulfonyl}(methyl)amino)-2-(hydroxyamino)-2-oxoethyl)phenoxy]ethyl)-(methyl)carbamate], the melting point was 62 °C (dec.). For the same compound, the IC50 in data set [2] was determined as 37 nM. In data set [3], the IC50 was found to be 1150 nM. Besides, the IC50 in data set [4] came to 60 nM. Besides, the IC50 in data set [5] was 64 nM.

Compound `CC#CCOc1ccc(S(=O)(=O)NC(C(=O)NO)c2ccc(OCCN(C)C(=O)OC(C)(C)C)cc2)cc1` (stereo not drawn) [Example 203, tert-Butyl 4-(2-{4-[1-({[4-(2-Butynyloxy)phenyl]sulfonyl}amino)-2-(hydroxyamino)-2-oxoethyl)phenoxy]ethyl)-(methyl)carbamate] registered a melting point of 90 to 92 °C. Further, the IC50 in data set [2] came out at 859 nM. Further, the IC50 in data set [3] is more than 10000 nM. In addition, in data set [4], the IC50 came out at 126 nM. For the same compound, the IC50 in data set [5] was determined as 49 nM.

With `CC#CCOc1ccc(S(=O)(=O)N2CCN(S(C)(=O)=O)CC2C(=O)NO)cc1` (stereo not drawn) [Example 227, 1-(4-but-2-ynyloxy-Benzenesulfonyl)-4-methanesulfonyi-piperazine-2-carboxylic Acid Hydroxyamide], the inhibition at 3 µM in data set [1] (setting [6]) came to 81%. Besides, the IC50 worked out at 51 nM in data set [2], 96 nM in data set [3] and 6.4 nM in data set [4].

Regarding `CC#CCOc1ccc(S(=O)(=O)N2CCSC3(CCCCC3)C2C(=O)NO)cc1` (stereo not drawn) [Example 237], the “THP % Inhibition @ 3 μM” value in data set [1] (Table 9) was found to be 90%. Besides, the values for the IC50 in data set [3] (Table 9), in data set [4] (Table 9) and in data set [5] (Table 9) were 62 nM, 12 nM and 212 nM, respectively.

`CC#CCOc1ccc(S(=O)(=O)N2CCSC(CC)(CC)C2C(=O)NO)cc1` (stereo not drawn) [Example 238]: in data set [1] (Table 9), the “THP % Inhibition @ 3 μM” value was found to be 73%. Besides, the IC50 in data set [3] (Table 9) is 38 nM; in data set [4] (Table 9) it was 6.8 nM; in data set [5] (Table 9) it was 228 nM.

Turning to `CC1(C)SCCN(S(=O)(=O)c2ccc(OCC#CCO)cc2)[C@H]1C(=O)NO` [Example 260, (3S)-N-Hydroxy-4-({4-[(4-hydroxy-2-butynyl)oxy]phenyl}sulfonyl)-2,2-dimethyl-3-thiomorpholine Carboxamide], the inhibition at 3 µM in data set [1] (THP-1, 3 μM, Table 10, read-out: THP % Inhibition @ 3 μM) was 95%. Besides, the IC50 in data set [3] (Table 10) worked out at 33 nM; in data set [4] (Table 10) it was 8.1 nM; in data set [5] (Table 10), 20 nM.

Take `CC#CCOc1ccc(S(=O)(=O)N2C[C@@H](CNC(=O)OC(C)(C)C)SC(C)(C)[C@@H]2C(=O)NO)cc1` [Example 273, tert-Butyl{(2R,5S)-4-{[4-(2-butynyloxy)phenyl]sulfonyl}-5-[(hydroxyamino)carbonyl]-6,6-dimethylthiomorpholinyl}methylcarbamate]: in data set [1] (THP-1, 3 μM, Table 11, read-out: THP % Inhibition @ 3 μM), the inhibition at 3 µM worked out at 90%. The results for the IC50 in data set [2] (Table 11) and in data set [5] (Table 11) were 61 nM and 87 nM, respectively.

As for `CC#CCOc1ccc(S(=O)(=O)N2C[C@H](CNC(=O)OC(C)(C)C)SC(C)(C)[C@@H]2C(=O)NO)cc1` [Example 274, tert-Butyl{(2S,5S)-4-{[4-(2-butynyloxy)phenyl]sulfonyl}-5-[(hydroxyamino)carbonyl]-6,6-dimethylthiomorpholinyl}methylcarbamate], in data set [1] (Table 11), the “THP % Inhibition @ 3 μM” value was determined as 84%. Moreover, the IC50 was found to be 107 nM in data set [2] (Table 11) and 59 nM in data set [5] (Table 11).

As for `CC#CCOc1ccc(S(=O)(=O)NC2(C(=O)NO)CCN(C(=O)OC(C)(C)C)CC2)cc1` [Example 287, tert-Butyl 4-({[4-(2-Butynyloxy)phenyl]sulfonyl}amino)-4-[(hydroxyamino)carbonyl]-1-piperidinecarboxylate], in data set [1] (setting [6]), the inhibition at 3 µM came out at 60%. For the same compound, the IC50 was more than 10000 nM in data set [3], 530 nM in data set [4] and 37 nM in data set [5].

For the compound `CC#CCOc1ccc(S(=O)(=O)NC2(C(=O)NO)CCNCC2)cc1` [Example 288, 4-({[4-(2-Butynyloxy)phenyl]sulfonyl}amino)-N-hydroxy-4-piperidinecarboxamide], the inhibition at 3 µM in data set [1] (setting [6]) is 25%. Also, the IC50 in data set [3] was more than 10000 nM; in data set [4], more than 10000 nM; in data set [5], 50 nM.

The record behind these values is US6716833B2, “Acetylenic α-amino acid-based sulfonamide hydroxamic acid tace inhibitors” (priority 1999, dated 2004).
